How the values were obtained:
bedstraw = assay: Test B pre/postemergence bedstraw; type: in vivo, Galium aparine
Procedure, shortened: (§1)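 Test chemicals in a non-phytotoxic solvent mixture with surfactant were sprayed preemergence onto planted seeds and postemergence onto plants 2 to 18 cm tall (1- to 4-leaf stage). After twelve to sixteen days in a greenhouse, injury was visually rated against untreated controls from 0 (no effect) to 10 (complete control).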

soybean = assay: Test B pre/postemergence soybean; type: in vivo, Glycine max
Procedure, shortened: as §1

corn = assay: Test B pre/postemergence corn; type: in vivo, Zea mays
Procedure, shortened: as §1

giant foxtail = assay: Test B pre/postemergence giant foxtail; type: in vivo, Setaria faberii
Procedure, shortened: as §1

cocklebur = assay: Test B pre/postemergence cocklebur; type: in vivo, Xanthium strumarium
Procedure, shortened: as §1

surinam grass = assay: Test B pre/postemergence surinam grass; type: in vivo, Brachiaria decumbens
Procedure, shortened: as §1

wheat = assay: Test B pre/postemergence wheat; type: in vivo, Triticum aestivum
Procedure, shortened: as §1

crabgrass = assay: Test B pre/postemergence crabgrass; type: in vivo, Digitaria sanguinalis
Procedure, shortened: as §1

wild oat = assay: Test B pre/postemergence wild oat; type: in vivo, Avena fatua
Procedure, shortened: as §1

pigweed = assay: Test B pre/postemergence pigweed; type: in vivo, Amaranthus retroflexus
Procedure, shortened: as §1

purple nutsedge = assay: Test B pre/postemergence purple nutsedge; type: in vivo, Cyperus rotundus
Procedure, shortened: as §1

rape = assay: Test B pre/postemergence rape; type: in vivo, Brassica napus
Procedure, shortened: as §1

blackgrass = assay: Test B pre/postemergence blackgrass; type: in vivo, Alopecurus myosuroides
Procedure, shortened: as §1

morningglory = assay: Test B pre/postemergence morningglory; type: in vivo, Ipomoea hederacea
Procedure, shortened: as §1

sugar beet = assay: Test B pre/postemergence sugar beet; type: in vivo, Beta vulgaris
Procedure, shortened: as §1

velvetleaf = assay: Test B pre/postemergence velvetleaf; type: in vivo, Abutilon theophrasti
Procedure, shortened: as §1

[1] = Postemergence, Rate 62 g/ha, scale of 0 to 10, 0 is no effect, 10 is complete control
[2] = Postemergence, Rate 125 g/ha, scale of 0 to 10 where 0 is no effect and 10 is complete control
[3] = Preemergence, Rate 62 g/ha, scale 0 to 10 (0 no effect, 10 complete control)
[4] = Preemergence, Rate 125 g/ha, scale of 0 to 10 where 0 is no effect and 10 is complete control
[5] = Preemergence, Rate 500 g/ha, scale of 0 to 10 where 0 is no effect and 10 is complete control
[6] = Postemergence, Rate 250 g/ha, scale of 0 to 10, 0 is no effect, 10 is complete control
[7] = Postemergence, Rate 500 g/ha, scale of 0 to 10 where 0 is no effect and 10 is complete control

SMILES: CC(C)N(C(=O)n1oc(=O)n(CCCC(F)(F)F)c1=O)c1ccccc1 [Compound 585]
- Bedstraw plant response rating (bedstraw; [1]): 0
- Plant response rating, Bedstraw (bedstraw; [2]): 8
- Bedstraw plant response rating (bedstraw; [3]): 7
- Bedstraw plant response rating (bedstraw; [4]): 8
- Bedstraw plant response rating (0 to 10 scale) (bedstraw; Preemergence, Rate 250 g/ha): 9
- Bedstraw plant response rating (bedstraw; [5]): 8
- Plant response rating, Soybean (soybean; [2]): 0
- Soybean plant response rating (soybean; [6]): 4
- Plant response rating, Soybean (soybean; [7]): 3
- Soybean plant response rating (soybean; [3]): 0
- Soybean plant response rating (soybean; [4]): 0
- Soybean plant response rating (soybean; [5]): 3
- Corn plant response rating (corn; [1]): 0
- Plant response rating, Corn (corn; [2]): 0
- Corn plant response rating (corn; [6]): 0
- Plant response rating, Corn (corn; [7]): 5
- Corn plant response rating (corn; [3]): 0
- Corn plant response rating (corn; [4]): 2
- Corn plant response rating (0 to 10 scale) (corn; Preemergence, Rate 250 g/ha): 3
- Corn plant response rating (corn; [5]): 5
- Giant foxtail plant response rating (giant foxtail; [1]): 6
- Plant response rating, Giant foxtail (giant foxtail; [2]): 6
- Giant foxtail plant response rating (giant foxtail; [6]): 8
- Plant response rating, Giant foxtail (giant foxtail; [7]): 9
- Giant foxtail plant response rating (giant foxtail; [3]): 7
- Giant foxtail plant response rating (giant foxtail; [4]): 6
- Giant foxtail plant response rating (giant foxtail; [5]): 10
- Cocklebur plant response rating (cocklebur; [1]): 0
- Plant response rating, Cocklebur (cocklebur; [2]): 0
- Cocklebur plant response rating (cocklebur; [6]): 0
- Plant response rating, Cocklebur (cocklebur; [7]): 7
- Cocklebur plant response rating (cocklebur; [3]): 0
- Cocklebur plant response rating (cocklebur; [4]): 0
- Cocklebur plant response rating (0 to 10 scale) (cocklebur; Preemergence, Rate 250 g/ha): 0
- Cocklebur plant response rating (cocklebur; [5]): 3
- B. signalgrass plant response rating (surinam grass; [1]): 0
- Plant response rating, B. signalgrass (surinam grass; [2]): 0
- B. signalgrass plant response rating (surinam grass; [6]): 0
- Plant response rating, B. signalgrass (surinam grass; [7]): 7
- B. signalgrass plant response rating (surinam grass; [3]): 3
- B. signalgrass plant response rating (surinam grass; [4]): 8
- B. signalgrass plant response rating (0 to 10 scale, 0 is no effect, 10 is complete control) (surinam grass; Preemergence, Rate 250 g/ha): 9
- B. signalgrass plant response rating (surinam grass; [5]): 9
- Plant response rating, Wheat (wheat; [2]): 2
- Wheat plant response rating (wheat; [6]): 2
- Plant response rating, Wheat (wheat; [7]): 4
- Wheat plant response rating (wheat; [3]): 0
- Wheat plant response rating (wheat; [4]): 3
- Wheat plant response rating (wheat; [5]): 3
- Plant response rating, Crabgrass (crabgrass; [2]): 5
- Crabgrass plant response rating (crabgrass; [6]): 9
- Plant response rating, Crabgrass (crabgrass; [7]): 9
- Crabgrass plant response rating (crabgrass; [3]): 5
- Crabgrass plant response rating (crabgrass; [4]): 8
- Crabgrass plant response rating (crabgrass; [5]): 10
- Plant response rating, Wild oats (wild oat; [2]): 0
- Wild oats plant response rating (wild oat; [6]): 0
- Plant response rating, Wild oats (wild oat; [7]): 2
- Wild oats plant response rating (wild oat; [3]): 0
- Wild oats plant response rating (wild oat; [4]): 3
- Wild oats plant response rating (wild oat; [5]): 9
- Plant response rating, Redroot pigweed (pigweed; [2]): 0
- Redroot pigweed plant response rating (pigweed; [6]): 3
- Plant response rating, Redroot pigweed (pigweed; [7]): 7
- Redroot pigweed plant response rating (pigweed; [3]): 6
- Redroot pigweed plant response rating (pigweed; [4]): 9
- Redroot pigweed plant response rating (pigweed; [5]): 10
- Nutsedge plant response rating (purple nutsedge; [1]): 0
- Plant response rating, Nutsedge (purple nutsedge; [2]): 0
- Nutsedge plant response rating (purple nutsedge; [6]): 0
- Plant response rating, Nutsedge (purple nutsedge; [7]): 0
- Nutsedge plant response rating (purple nutsedge; [3]): 0
- Nutsedge plant response rating (purple nutsedge; [4]): 0
- Nutsedge plant response rating (purple nutsedge; [5]): 10
- Rape plant response rating (rape; [1]): 0
- Plant response rating, Rape (rape; [2]): 3
- Rape plant response rating (rape; [6]): 5
- Plant response rating, Rape (rape; [7]): 5
- Rape plant response rating (rape; [3]): 3
- Rape plant response rating (rape; [4]): 8
- Rape plant response rating (rape; [5]): 10
- Blackgrass plant response rating (blackgrass; [1]): 3
- Plant response rating, Blackgrass (blackgrass; [2]): 6
- Blackgrass plant response rating (blackgrass; [6]): 6
- Plant response rating, Blackgrass (blackgrass; [7]): 7
- Blackgrass plant response rating (blackgrass; [3]): 3
- Blackgrass plant response rating (blackgrass; [4]): 8
- Blackgrass plant response rating (0 to 10 scale) (blackgrass; Preemergence, Rate 250 g/ha): 8
- Blackgrass plant response rating (blackgrass; [5]): 8
- Morningglory plant response rating (morningglory; [1]): 4
- Plant response rating, Morningglory (morningglory; [2]): 8
- Morningglory plant response rating (morningglory; [6]): 10
- Plant response rating, Morningglory (morningglory; [7]): 10
- Morningglory plant response rating (morningglory; [3]): 0
- Morningglory plant response rating (morningglory; [4]): 0
- Morningglory plant response rating (morningglory; [5]): 5
- Plant response rating, Sugarbeets (sugar beet; [2]): 2
- Sugarbeets plant response rating (sugar beet; [6]): 4
- Plant response rating, Sugarbeets (sugar beet; [7]): 7
- Sugarbeets plant response rating (sugar beet; [3]): 0
- Sugarbeets plant response rating (sugar beet; [4]): 3
- Sugarbeets plant response rating (sugar beet; [5]): 6
- Plant response rating, Velvetleaf (velvetleaf; [2]): 3
- Velvetleaf plant response rating (velvetleaf; [6]): 4
- Plant response rating, Velvetleaf (velvetleaf; [7]): 5
- Velvetleaf plant response rating (velvetleaf; [3]): 0
- Velvetleaf plant response rating (velvetleaf; [4]): 0
- Velvetleaf plant response rating (velvetleaf; [5]): 6

Source: patent US6737383B1, “Herbicidal oxadiazolidines” (priority 1999, dated 2004)
